Paper PMC6494957 (Frontiers in Microbiology, 2019)
Like-named read-outs stand apart in the source and are kept apart here.

Experiments:
A. baumannii ATCC 19606 = test: microbe, parasite or virus in culture; details: for DRI EDTA:ROB: DRI of the labelled component; for MIC: Acinetobacter baumannii
Procedure: (§1) The MIC for ampicillin or gentamicin against each isolate was determined for each test to serve as an internal quality control. The MICs of isolates were determined by visual reading and using an EnSpire Multimode Plate Reader 2300 atA600nm.
(§2) Briefly, antimicrobial stock solutions for robenidine and PMBN were prepared at a concentration of 12.8 mg/ml in DMSO. […] A 1 μl aliquot of the first compound from each combination was dispensed along the abscissa (from row A to G) of the 96-well microplate, while the second compound was dispensed along the ordinate (from column 12 to column 3) using an electronic multichannel pipette followed by 89 μl of LB broth. Each well of the plate was inoculated with an aliquot of 10 μl bacterial suspension at a concentration of 1-5 × 10^6 colony forming units (CFU) per ml. Subsequently, the plate was incubated at 37°C for 24 h. The fractional inhibitory concentration index (FICI) described the results of the combinations, and was calculated utilizing the following formula:
(§3) DRI = MIC of drug alone/MIC of drug in combination

[1] = test system: A. calcoaceticus (human clinical isolate); test: microbe, parasite or virus in culture; details: for DRI EDTA:ROB: DRI of the labelled component; for MIC: Acinetobacter calcoaceticus
Procedure: as §1, §2, §3

E. coli ATCC 11229 = test: microbe, parasite or virus in culture; details: for DRI EDTA:ROB: DRI of the labelled component; for MIC: Escherichia coli
Procedure: as §1, §2, §3

E. coli ATCC 25922 = test: microbe, parasite or virus in culture; details: for DRI EDTA:ROB: DRI of the labelled component; for MIC: Escherichia coli
Procedure: as §1, §2, §3

K. pneumoniae ATCC 13883 = test: microbe, parasite or virus in culture; details: for DRI EDTA:ROB: DRI of the labelled component; for MIC: Klebsiella pneumoniae
Procedure: as §1, §2, §3

P. aeruginosa ATCC 27853 = test: microbe, parasite or virus in culture; details: for DRI EDTA:ROB: DRI of the labelled component; for MIC: Pseudomonas aeruginosa
Procedure: as §1, §2, §3

P. mirabilis ATCC 43071 = test: microbe, parasite or virus in culture; details: for DRI EDTA:ROB: DRI of the labelled component; for MIC in combination EDTA:ROB: concentration of the labelled component; for MIC: Proteus mirabilis
Procedure: as §1, §2, §3

P. putida ATCC 17428 = test: microbe, parasite or virus in culture; details: for DRI EDTA:ROB: DRI of the labelled component; for MIC: Pseudomonas putida
Procedure: as §1, §2, §3

P. aeruginosa PA01 = test: MIC broth microdilution and checkerboard; type: cell-based, Pseudomonas aeruginosa; details: for DRI EDTA:ROB: DRI of the labelled component; for MIC: Pseudomonas aeruginosa; for MIC in combination EDTA:ROB: concentration of the labelled component
Procedure: as §1, §2, §3

[2] = test system: preformed biofilms of P. aeruginosa PA01 and clinical isolates of P. aeruginosa; test: Antibiofilm susceptibility (MBEC device) and biofilm checkerboard; type: cell-based, Pseudomonas aeruginosa
Procedure: Briefly, biofilms of P. aeruginosa PA01, two clinical isolates of P. aeruginosa isolates and two clinical isolates of S. pseudintermedius were formed by inoculating 150 μl of 10^7 CFU/ml of each bacterial suspension in the MBEC^TM device. The inoculated device was aerobically incubated on an orbital shaker at 37°C (OM11, Ratek Instruments Pty Ltd., Australia) for 24 h to produce equivalent (Uniform) biofilms on all pegs. […] Following antimicrobial challenge, the biofilms were rinsed twice with phosphate buffered saline (pH = 7) and disrupted via sonication (Soniclean, Model 160TD, Australia) for 10 min into the recovery medium. Viable cell counts were determined for recovered cells (colony-forming units per peg) after preparing a serial dilution and plating 10 μl in duplicates of each dilution onto plate count agar. Viable counts were then expressed as a percentage of the mean CFU of growth controls. MBEC was defined as the lowest concentration of antimicrobial agent that eradicates the biofilms recovered from the antimicrobial challenge.
Briefly, the MBEC^TM High-throughput assay system (MBEC^TM BioProducts, Innovotech, Canada) was used for the preparation of Gram-positive and Gram-negative biofilm producing bacteria as described above for antibiofilm susceptibility testing. […] Subsequently, the plate was incubated at 37°C for 24 h.

[3] = A. baumannii ATCC 19606, concentration of the labelled component
[4] = ATCC19606, read-out: MIC, single drug
[5] = A. calcoaceticus human clinical isolate
[6] = A. calcoaceticus human clinical isolate, concentration of the labelled component
[7] = read-out: MIC, single drug (mM in parentheses)
[8] = E. coli ATCC 11229, concentration of the labelled component
[9] = ATCC11229, read-out: MIC, single drug
[10] = E. coli ATCC 25922, concentration of the labelled component
[11] = ATCC25922, read-out: MIC, single drug
[12] = K. pneumoniae ATCC 13883, concentration of the labelled component
[13] = ATCC13883, read-out: MIC, single drug
[14] = P. aeruginosa ATCC 27853, concentration of the labelled component
[15] = ATCC27853, read-out: MIC, single drug
[16] = ATCC43071, read-out: MIC, single drug
[17] = P. putida ATCC 17428, concentration of the labelled component
[18] = ATCC17428, read-out: MIC, single drug

## O=C(O)CN(CCN(CC(=O)O)CC(=O)O)CC(=O)O [EDTA, ethylenediaminetetraacetic acid]
A. baumannii ATCC 19606; A. baumannii ATCC 19606
  DRI EDTA:ROB: 2
A. baumannii ATCC 19606; A. baumannii ATCC 19606, EDTA component
  MIC in combination EDTA:ROB (mM in parentheses): 0.5 mM
A. baumannii ATCC 19606; [3]
  MIC in combination EDTA:ROB: 190 µg/mL
A. baumannii ATCC 19606; [4]
  MIC: 380 µg/mL
A. baumannii ATCC 19606; ATCC19606, read-out: MIC, single drug (mM in parentheses)
  MIC: 1 mM
[1]; [5]
  DRI EDTA:ROB: 1
[1]; A. calcoaceticus human clinical isolate, EDTA component
  MIC in combination EDTA:ROB (mM in parentheses): 0.6 mM
[1]; [6]
  MIC in combination EDTA:ROB: 228 µg/mL
[1]; read-out: MIC, single drug
  MIC: 228 µg/mL
[1]; [7]
  MIC: 0.6 mM
E. coli ATCC 11229; E. coli ATCC 11229
  DRI EDTA:ROB: 4
E. coli ATCC 11229; E. coli ATCC 11229, EDTA component
  MIC in combination EDTA:ROB (mM in parentheses): 0.6 mM
E. coli ATCC 11229; [8]
  MIC in combination EDTA:ROB: 228 µg/mL
E. coli ATCC 11229; [9]
  MIC: 950 µg/mL
E. coli ATCC 11229; ATCC11229, read-out: MIC, single drug (mM in parentheses)
  MIC: 2.5 mM
E. coli ATCC 25922; E. coli ATCC 25922
  DRI EDTA:ROB: 4
E. coli ATCC 25922; E. coli ATCC 25922, EDTA component
  MIC in combination EDTA:ROB (mM in parentheses): 2.5 mM
E. coli ATCC 25922; [10]
  MIC in combination EDTA:ROB: 950 µg/mL
E. coli ATCC 25922; [11]
  MIC: 3800 µg/mL
E. coli ATCC 25922; ATCC25922, read-out: MIC, single drug (mM in parentheses)
  MIC: 10 mM
K. pneumoniae ATCC 13883; K. pneumoniae ATCC 13883
  DRI EDTA:ROB: 3
K. pneumoniae ATCC 13883; K. pneumoniae ATCC 13883, EDTA component
  MIC in combination EDTA:ROB (mM in parentheses): 10 mM
K. pneumoniae ATCC 13883; [12]
  MIC in combination EDTA:ROB: 3800 µg/mL
K. pneumoniae ATCC 13883; [13]
  MIC: 11400 µg/mL
K. pneumoniae ATCC 13883; ATCC13883, read-out: MIC, single drug (mM in parentheses)
  MIC: 30 mM
P. aeruginosa ATCC 27853; P. aeruginosa ATCC 27853
  DRI EDTA:ROB: 2
P. aeruginosa ATCC 27853; P. aeruginosa ATCC 27853, EDTA component
  MIC in combination EDTA:ROB (mM in parentheses): 5 mM
P. aeruginosa ATCC 27853; [14]
  MIC in combination EDTA:ROB: 1900 µg/mL
P. aeruginosa ATCC 27853; [15]
  MIC: 3800 µg/mL
P. aeruginosa ATCC 27853; ATCC27853, read-out: MIC, single drug (mM in parentheses)
  MIC: 10 mM
P. mirabilis ATCC 43071; P. mirabilis ATCC 43071
  DRI EDTA:ROB: 1
  MIC in combination EDTA:ROB: 228 µg/mL
P. mirabilis ATCC 43071; P. mirabilis ATCC 43071, EDTA component
  MIC in combination EDTA:ROB (mM in parentheses): 0.6 mM
P. mirabilis ATCC 43071; [16]
  MIC: 228 µg/mL
P. mirabilis ATCC 43071; ATCC43071, read-out: MIC, single drug (mM in parentheses)
  MIC: 0.6 mM
P. putida ATCC 17428; P. putida ATCC 17428
  DRI EDTA:ROB: 2
P. putida ATCC 17428; P. putida ATCC 17428, EDTA component
  MIC in combination EDTA:ROB (mM in parentheses): 2.5 mM
P. putida ATCC 17428; [17]
  MIC in combination EDTA:ROB: 950 µg/mL
P. putida ATCC 17428; [18]
  MIC: 1900 µg/mL
P. putida ATCC 17428; ATCC17428, read-out: MIC, single drug (mM in parentheses)
  MIC: 5 mM
P. aeruginosa PA01
  DRI EDTA:ROB: 2
  MIC in combination EDTA:ROB: 950 µg/mL
P. aeruginosa PA01; EDTA component
  MIC in combination EDTA:ROB (mM in parentheses): 2.5 mM
P. aeruginosa PA01; read-out: MIC, single drug
  MIC: 1900 µg/mL
P. aeruginosa PA01; [7]
  MIC: 5 mM
[2]; Gram-negative (P. aeruginosa) biofilms, vs growth control
  concentration with significant disruption of 24 h preformed biofilms: 1 mM

## N=C(N/N=C/c1ccc(Cl)cc1)N/N=C/c1ccc(Cl)cc1 [ROB, robenidine]
A. baumannii ATCC 19606; A. baumannii ATCC 19606
  DRI EDTA:ROB: 8
A. baumannii ATCC 19606; [3]
  MIC in combination EDTA:ROB: 4 µg/mL
  MIC in combination PMBN:ROB: 2 µg/mL
A. baumannii ATCC 19606; [4]
  MIC: 32 µg/mL
[1]; [5]
  DRI EDTA:ROB: 32
[1]; [6]
  MIC in combination EDTA:ROB: 0.125 µg/mL
  MIC in combination PMBN:ROB: 0.5 µg/mL
[1]; read-out: MIC, single drug
  MIC: 4 µg/mL
E. coli ATCC 11229; E. coli ATCC 11229
  MIC, single drug: >256 µg/mL
  DRI EDTA:ROB: 32
E. coli ATCC 11229; [8]
  MIC in combination EDTA:ROB: 8 µg/mL
  MIC in combination PMBN:ROB: 8 µg/mL
E. coli ATCC 11229; [9]
  MIC: > 256 µg/mL
E. coli ATCC 25922; E. coli ATCC 25922
  MIC, single drug: >256 µg/mL
  DRI EDTA:ROB: 64
E. coli ATCC 25922; [10]
  MIC in combination EDTA:ROB: 4 µg/mL
  MIC in combination PMBN:ROB: 8 µg/mL
E. coli ATCC 25922; [11]
  MIC: > 256 µg/mL
K. pneumoniae ATCC 13883; K. pneumoniae ATCC 13883
  MIC, single drug: >256 µg/mL
  DRI EDTA:ROB: 2
K. pneumoniae ATCC 13883; [12]
  MIC in combination EDTA:ROB: 128 µg/mL
  MIC in combination PMBN:ROB: 4 µg/mL
K. pneumoniae ATCC 13883; [13]
  MIC: > 256 µg/mL
P. aeruginosa ATCC 27853; P. aeruginosa ATCC 27853
  MIC, single drug: >256 µg/mL
  DRI EDTA:ROB: 256
P. aeruginosa ATCC 27853; [14]
  MIC in combination EDTA:ROB: 1.25 µg/mL
  MIC in combination PMBN:ROB: 1 µg/mL
P. aeruginosa ATCC 27853; [15]
  MIC: > 256 µg/mL
P. mirabilis ATCC 43071; P. mirabilis ATCC 43071
  MIC, single drug: >256 µg/mL
  DRI EDTA:ROB: 256
  MIC in combination EDTA:ROB: 1.25 µg/mL
P. mirabilis ATCC 43071; [16]
  MIC: > 256 µg/mL
P. putida ATCC 17428; P. putida ATCC 17428
  DRI EDTA:ROB: 256
P. putida ATCC 17428; [17]
  MIC in combination EDTA:ROB: 1.25 µg/mL
  MIC in combination PMBN:ROB: 1:1 μg/ml
P. putida ATCC 17428; [18]
  MIC: > 256 µg/mL
P. aeruginosa PA01
  DRI EDTA:ROB: 256
  MIC in combination EDTA:ROB: 1.25 µg/mL
P. aeruginosa PA01; read-out: MIC, single drug
  MIC: > 256 µg/mL
[2]; P. aeruginosa biofilms, up to 128 μg/ml, 24 h
  antibiofilm activity: did not show any antibiofilm activity
